Measurements taken from patent US5760036A, “Aminediol protease inhibitors” (E. R. Squibb & Sons, Inc., priority 1995, dated 1998).
Like-named read-outs stand apart in the source and are kept apart here.

Experiments:
[1] = molecular target: T1, HIV protease (Human immunodeficiency virus type 1 group M subtype B, UniProt P04585); experiment: HIV Protease Assay; format: biochemical
T1 construct: and purified protease
In short: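 At a single final concentration of 10 μM (4% DMSO), inhibitors were added to a 30-minute, 37° C reaction of purified enzyme with 450 μM H2N-Val-Ser-Gln-Asn-(β-naphthyl-alanine)-Pro-Val-Ile-OH at pH 5.5 (sodium acetate, BSA). Hydrolysis was quantified by reverse-phase HPLC with 220 nm detection after acid quench.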

[2] = system: RF strain of HIV (CEM-SS cells); experiment: Cell Culture Anti-HIV Activity (cell viability, formazan); format: cell-based; details: Human immunodeficiency virus 1, CEM-SS, 144 h, CEM-SS cells, RF strain of HIV, multiplicity of infection 0.04, 6 days at 37° C., 450 nm; read-out: HIV (CEM Cells) IC50
In short: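 Half-log compound dilutions added to CEM-SS cells (5000/well) carrying HIV RF (MOI 0.04), 6 days, 37° C. Cell protection measured as formazan from tetrazolium, A450. IC50: drug level restoring infected-cell formazan to 50% of the uninfected untreated control.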

[3] = pH 5.5, 10 μM inhibitor, 4% DMSO, 450 μM substrate, pH 5.5, 30 minutes at 37° C., RP-HPLC, read-out: HIV Protease % Inhibition at 10 μM
[4] = pH 5.5, read-out: HIV Protease % Inhibition at 10 μM

inhibition at 10 µM [1, 3] [%] | inhibition at 10 µM [1, 4] [%] | SMILES | IC50 [2] [nM]
100 | – | CC(C)[C@H](NC(=O)OCc1nc2ccccc2o1)C(=O)N[C@@H](Cc1ccc(O)cc1)[C@H](O)CNC[C@@H](O)[C@H](Cc1ccccc1)NC(=O)OC(C)(C)C (relative stereo) [Compound 288, [1R*,2S*(2S*,3R*)]-N^2-[[(2-Benzoxazolyl)methoxy]carbonyl]-N-[3-[[3-[[(1.1-dimethylethoxy)carbonyl]amino]-2-hydroxy-4-phenylbutyl]amino]-2-hydroxy-1-[(4-hydroxyphenyl)methyl]propyl]-L-valinamide] | 470
98 | – | CC(C)(C)OC(=O)N[C@@H](Cc1ccccc1)[C@H](O)CNC[C@@H](O)[C@H](Cc1ccccc1)NC(=O)OC1(CO)CCC1 [Compound 303, [1S-(1R*,2S*)]-[Iminobis[2-hydroxy-1-(phenylmethyl)-3,1-propanediyl]]bis[[carbamic acid], 1-(hydroxymethyl)cyclobutyl 1,1-dimethylethyl ester] | 70
– | 99 | CC(C)(C)OC(=O)N[C@@H](Cc1ccccc1)[C@H](O)CNC[C@@H](O)[C@H](Cc1ccccc1)NC(=O)C(C)(O)C(C)(C)CO (single isomer, unassigned; isomer a) [Compound 356, [1S-[1R*,2S*(2S*,3R*)]]-[3-[3-[2,4-Dihydroxy-2,3,3-trimethyl-1-oxobutyl)amino]-2-hydroxy-4-phenylbutyl]amino]-2-hydroxy-1-(phenylmethyl)propyl]carbamic acid, 1,1-dimethylethyl ester, isomer A] | 120
100 | – | CC(C)(C)OC(=O)N[C@@H](Cc1ccccc1)[C@H](O)CNC[C@@H](O)[C@H](Cc1ccccc1)NC(=O)OC1(C)CCOC1 (stereo partly drawn) [Compound 314, [1S-(1R*,2S*)]-[Iminobis[2-hydroxy-1-(phenylmethyl)-3,1-propanediyl]]bis[carbamic acid], 1,1-dimethylethyl-3-methyl-3-tetrahydrofuranyl ester] | 120
58 | – | CC(C)[C@@H](NC(=O)OCc1ccccc1)C(=O)N[C@@H](Cc1ccccc1)[C@H](O)CNC[C@@H](O)[C@H](Cc1ccccc1)NC(=O)OC(C)(C)C [Compound 71, [R-[1S*,2R*(2R*, 3S*)]]-N-[3-[[3-[[(1,1-Dimethylethoxy)carbonyllamino]2-hydroxy-4-phenylbutyl]amino]-2-hydroxy-1-phenylmethyl)propyl]-N^2-[(phenylmethoxy)-carbonyl]-D-valinamide] | 1200
99 | – | CC(C)(C)OC(=O)N[C@@H](Cc1ccccc1)[C@H](O)CNC[C@@H](O)[C@H](Cc1ccc(OCc2ccccc2)cc1)NC(=O)OC(C)(C)C [Compound 179, [1S-[1R*,2S*(2S*,3R*)]]-[3-[[3-[[(1,1-Dimethylethoxy)carbonyl]amino]-2-hydroxy-4-phenylbutyl]amino]-2-hydroxy-1-[[4-(phenylmethoxy)-phenyl]methyl]propyl]carbamic acid, 1,1-dimethylethyl ester] | 170
– | 94 | CC(C)(C)OC(=O)N[C@@H](Cc1ccccc1)[C@H](O)CNC[C@@H](O)[C@H](Cc1ccccc1)NC(=O)[C@@](C)(O)C(C)(C)C [Compound 261, [1S-[1R*,2S*[2R*,3R*(R*)]]]-[3-[[3-[(2-Hydroxy-2,3,3-trimethyl-1-oxobutyl)amino]-2-hydroxy-4-phenylbutyl]amino]-2-hydroxy-1--(phenylmethyl)propyl]carbamic acid, 1,1-dimethylethyl ester] | 1100
100 | – | CC(C)[C@H](NC(=O)NCc1nc2ccccc2[nH]1)C(=O)N[C@@H](Cc1ccccc1)[C@H](O)CNC[C@@H](O)[C@H](Cc1ccccc1)NC(=O)OC(C)(C)C (relative stereo) [Compound 273, [1R*,2S*(2S*,3R*)]-N^2-[[(1H-Benzimidazol-2-ylmethyl)amino]carbonyl]-N-[3-[[3-[[(1,1-dimethylethoxy)carbonyl]amino]-2-hydroxy-4-phenylbutyl]amino]-2-hydroxy-1-(phenylmethyl)propyl]-L-valinamide] | 1700
100 | – | CC(C)(C)OC(=O)N[C@@H](Cc1ccccc1)[C@H](O)CNC[C@@H](O)[C@H](Cc1ccccc1)NC(=O)[C@@H](NC(=O)OCc1ccccc1)C(C)(C)C [Compound 88, [1S-[1R*-[1R*,2S*(2S*,3R*)]]]-2,2-Dimethyl-1-[[[3-[[3-[[(1,1-Dimethylethoxcy)-carbonylamino]-2-hydroxy-4-phenylbutyl]amino]-2-hydroxy-1-(phenylmethyl),propyl]amino]-carbonyl]propoyl]carbamic acid, phenylmethyl ester] | 30

Further lines, the molecule ahead of its results:

SMILES | inhibition at 10 µM [1, 3] [%] | inhibition at 10 µM [1, 4] [%] | IC50 [2] [nM]
CC(C)(C)OC(=O)N[C@@H](Cc1ccccc1)[C@H](O)CNC[C@@H](O)[C@H](Cc1c[nH]c2ccccc12)NC(=O)OCc1ccccc1 [Compound 22, [1S-[1R*,2S*(2S*,3R*)]]-[3-[[3-[[(1,1-Dimethylethoxy)carbonyl]amino]-2-hydroxy-4-ehenylbutyl]amino]-2-hydroxy-1-[(1H-indol-3-yl)methyl]propyl]carbamic acid, phenylmethyl ester] | 90 | – | > 1800
CC(C)(C)OC(=O)N[C@@H](Cc1ccccc1)[C@H](O)CNC[C@@H](O)[C@H](Cc1ccccc1)NC(=O)C(NC(=O)OCc1ccccc1)C(C)(C)O (single isomer, unassigned; isomer a) [Compound 301, [1S-[1R*,2S*(2S*,3R*)]]-[1-[[[3-[[(1,1-Dimethylethoxy)carbonyl]amino]-2-hydroxy-4-phenylbutyl]amino]-2-hydroxy-1-(phenylmethyl)propyl]amino]carbonyl]-2-hydroxy-2-methylpropyl]carbamic acid, phenylmethyl ester, isomer A] | 95 | – | 2400
CC(C)(C)OC(=O)N[C@@H](Cc1ccccc1)[C@H](O)CNC[C@@H](O)[C@H](Cc1ccc(OCCCN2CCOCC2)cc1)NC(=O)OC(C)(C)C [Compound 201, [1S-[1R*,2S*(2S*,3R*)]]-[3-[[3-[[(1,1-Dimethylethoxy)carbonyl]aminol-2-hydroxy-4-[4-[3-(4-morpholinyl)propoxy]phenyl]butyl]amino]-2-hydroxy-1-(phenylmethyl)propyl]carbamic acid, 1,1-dimethylethyl ester] | 99 | – | 40
CC(C)(C)OC(=O)N[C@@H](Cc1ccccc1)[C@H](O)CNC[C@@H](O)[C@H](Cc1ccccc1)NC(=O)C1(NC(=O)OCc2ccccc2)CCCC1 [Compound 87, [1S-[1R*,2S*(2S*,3R*)]]-[2-Hydroxy3-[[2-hydroxy-3-[[[1-[[(phenylmethoxy)-carbonyl]amino]cycloyentyl]carbonyl]amino]-4-phenylbutyl]-amino]-1-(phenylmethyl)propoyl]carbamic acid, 1,1-dimethylethyl ester] | 92 | – | > 880
C[C@@H](O)[C@H](NC(=O)OCc1ccccc1)C(=O)N[C@@H](Cc1ccccc1)[C@H](O)CNC[C@@H](O)[C@H](Cc1ccccc1)NC(=O)OC(C)(C)C [Compound 100, [S-[1R*,2S*(2S*,3R*)]-N-[3-[[3-[[(1,1-Dimethylethoxy)carbonyl]amino]-2-hydroxy-4-phenylbutyl]amino]-2-hydroxy-1-(phenylmethyl)-propyl]-N^2 [(phenylmethoxy)carbonyl]-L-threoninamide] | 99 | – | 230
CC(C)[C@H](NC(=O)OC[C@@H](O)CO)C(=O)N[C@@H](Cc1ccccc1)[C@H](O)CNC[C@@H](O)[C@H](Cc1ccccc1)NC(=O)OC(C)(C)C (relative stereo) [Compound 202, [[1R*,2S*(2S*,3R*)],N^2-(R*)]-N^2-[(2,3-Dihydroxypropoxy)carbonyl]-N-[3-[[3-[[(1,1-dimethylethoxy)carbonyl]amino]-2-hydroxy-4-phenylbutyl]amino]-2-hydroxy-1-(phenylmethyl)propyl]-L-valinamide] | 95 | – | 16000
CC(C)[C@H](NC(=O)OCc1nc(-c2ccccc2)c[nH]1)C(=O)N[C@@H](Cc1ccccc1)[C@H](O)CNC[C@@H](O)[C@H](Cc1ccccc1)NC(=O)OC(C)(C)C (relative stereo) [Compound 265, [1R*,2S*(2S*,3R*)]-N-[3-[[3-[[(1,1-Dimethylethoxy)carbonyl]amino]-2-hydroxy-4-phenylbutyl]amino]-2-hydroxy-1-(phenylmethyl)propyl]-N^2-[[(4-phenyl-1H-imidazol-2-yl)methoxylcarbonyl]-L-valinamide] | 100 | – | 2600
CC(C)(C)OC(=O)N[C@@H](Cc1ccccc1)[C@H](O)CNC[C@@H](O)[C@H](Cc1ccccc1)NC(=O)c1ccc2ccccc2c1 [Compound 64, [1S-[1R*,2S*(2S*,3R*)]]-[2-Hydroxy-3-[[2-hydrox-3-[(2-naphthalenyl-carbonyl)amino]-4-phenylbutyl]amino]-1-(phenylmethyl)propyl]carbamic acid, 1,1-dimethylethyl ester] | 72 | – | > 5000
CC(C)C(NC(=O)OCc1ccccc1)C(=O)NC(Cc1ccccc1)C(O)CNCC(O)C(Cc1ccccc1)NC(=O)C(NC(=O)OCc1ccccc1)C(C)C [Compound 82, [S-[1R*,2R*(2S*,3R*)]]-N-[2-Hydroxy-3-[[2-hydroxy-4-phenyl-3-[[[N-(phenylmethoxy)carbonyl]-L-valyl]amino]butyl]amino]-1-(phenylmethyl)propyl]-N-^2-[(phenylmethoxy)carbonyl]-L-valinamide] | 94 | – | > 3000
